Results published in US20180327367A1, “MACROCYCLIC BROAD SPECTRUM ANTIBIOTICS” (priority 2015, published 2018).
In brackets after ≈: the same amount, converted by molar mass. Where two headings read alike, the source gives them in different places.

Columns and labels:
Assay type in all cases: cell-based
[1] = system: Escherichia coli MC4100 harboring the IMP4213 (E. coli IMP); assay: microbe, parasite or virus in culture; conditions: Escherichia coli, 22 h, read-out: MIC (μg/mL) E. coli IMP, E. coli MC4100 IMP4213, increased outer-membrane permeability; 35° C., 22 hours
Description: (§1) In vitro antimicrobial activity of each compound was determined by measuring minimal inhibitor concentrations (MICs) using the broth micro-dilution technique as approved by the Clinical and Laboratory Standards Institute (CLSI) (Methods for Dilution Antimicrobial Susceptibility Tests for Bacteria that Grow Aerobically; Approved Standard—Eighth Edition. CLSI document M07-A8. Wayne, Pa.: Clinical and Laboratory Standards; 2009). Antibacterial activity was measure against three strains of bacteria: a Methicillin Resistant Staphylococcus aureus strain USA 300, NRS384 (S. aureus); a strain of Escherichia coli MC4100 harboring the IMP4213 (E. coli IMP), which results in increased outer-membrane permeability (B Martin and Silhavy T. Imp/OstA is required for cell envelope biogenesis in Escherichia coli. (2002) Molecular Microbiology, 45(5), 1289-1302), and Escherichia coli ATCC 25922 (E. coli), a clinically relevant Gram-negative strain. Cells were inoculated onto plates of Trypyticase Soy Agar or Luria Agar respectively and grown at 35° C. for 20 hours. Inocula suspensions were prepared by scraping cells into 1 mL of testing media (cation adjusted Mueller Hinton Broth supplemented with 0.002% v/v Tween-80) and diluting to a final OD600 nm of 0.01.
(§2) Test compounds were prepared in DMSO at a concentration of 10 mg/mL. […] In protocol 2, the compound stocks were diluted into testing media at a concentration of 4 μg/mL and serial 2-fold dilutions were made in the same media, in 96-well U bottom microtiter dishes, for a total of 10 compound concentrations. In protocol 3, compound stocks were diluted into testing media at a concentration of 0.5 μg/mL, with serial 2-fold dilutions conducted as described above. […] Inocula suspensions were added to the 2-fold serial dilutions of test compounds to a final density of OD OD600 nm of 0.0005 and incubated at 35° C. for 22 hours.

[2] = system: Escherichia coli ATCC 25922; assay: Minimum inhibitory concentration, broth micro-dilution (CLSI), E. coli; conditions: Escherichia coli, ATCC25922, 22 h, 35° C., 22 hours
Description: Cells were inoculated onto plates of Trypyticase Soy Agar or Luria Agar respectively and grown at 35° C. for 20 hours. Inocula suspensions were prepared by scraping cells into 1 mL of testing media (cation adjusted Mueller Hinton Broth supplemented with 0.002% v/v Tween-80) and diluting to a final OD600 nm of 0.01.
as §2

[3] = system: Methicillin Resistant Staphylococcus aureus strain USA 300, NRS384; assay: Minimum inhibitory concentration, broth micro-dilution (CLSI), S. aureus; conditions: Staphylococcus aureus, MRSA / NRS 384 / USA300, 22 h, 35° C., 22 hours
Description: as §1, §2

[4] = E. coli ATCC 25922, read-out: MIC (μg/mL) E. coli
[5] = MRSA USA 300 NRS384, read-out: MIC (μg/mL) S. aureus

**Q.** For `C=CCC(C)(C)COc1ccc(C(=O)N[C@@H](CCN)C(=O)N(C)[C@@H]2C(=O)N[C@@H](C)C(=O)N[C@H](C(=O)NCC#N)Cc3ccc(OCCN)c(c3)-c3cc2ccc3OCCN)c(C)c1` [Compound 285], which MIC [1] is on record?
**A.** 0.0078 µg/mL (≈ 0.00899 µM)

**Q.** What about the MIC [2, 4] of the same compound?
**A.** 0.75 µg/mL (≈ 0.864 µM)

**Q.** What about the MIC [3, 5] of the same compound?
**A.** 0.063 µg/mL (≈ 0.0726 µM)

**Q.** For `Cc1cc(OCC2C[C@H]3CC[C@@H]2C3)ccc1C(=O)N[C@@H](CCN)C(=O)N(C)[C@@H]1C(=O)N[C@@H](C)C(=O)N[C@H](C(=O)NCC#N)Cc2ccc(OCCN)c(c2)-c2cc1ccc2OCCN` (stereo partly drawn) [Compound 287], which MIC [1] is on record?
**A.** 0.0078 µg/mL (≈ 0.00886 µM)

**Q.** And the MIC [2, 4]?
**A.** 0.38 µg/mL (≈ 0.432 µM)

**Q.** What about the MIC [3, 5] of the same compound?
**A.** 0.094 µg/mL (≈ 0.107 µM)

**Q.** What does the source list for `CCCCCCCOc1ccc(C(=O)N[C@@H](CCN)C(=O)N(C)[C@@H]2C(=O)N[C@@H](C)C(=O)N[C@H](C(=O)NCC#N)Cc3ccc(OCCN)c(c3)-c3cc2ccc3OCCN)c(C)c1C` [Compound 294]?
**A.** MIC [1]: 0.0078 µg/mL (≈ 0.00882 µM); MIC [2, 4]: 0.25 µg/mL (≈ 0.283 µM); MIC [3, 5]: 0.063 µg/mL (≈ 0.0713 µM)

**Q.** For `C[C@@H]1NC(=O)[C@@H](N(C)C(=O)[C@H](CCN)NC(=O)c2ccc(OCC(C)(C)C)c3ccccc23)c2ccc(OCCN)c(c2)-c2cc(ccc2OCCN)C[C@@H](C(=O)NCC#N)NC1=O` [Compound 296], which MIC [1] is on record?
**A.** 0.031 µg/mL (≈ 0.0353 µM)

**Q.** What about the MIC [2, 4] of the same compound?
**A.** 2 µg/mL (≈ 2.28 µM)

**Q.** And the MIC [3, 5]?
**A.** 0.047 µg/mL (≈ 0.0535 µM)

**Q.** For `CCCCCCOCc1ccc(C(=O)N[C@@H](CCN)C(=O)N(C)[C@@H]2C(=O)N[C@@H](C)C(=O)N[C@H](C(=O)NCC#N)Cc3ccc(OCCN)c(c3)-c3cc2ccc3OCCN)c(Cl)c1` [Compound 297], which MIC [1] is on record?
**A.** 0.0078 µg/mL (≈ 0.00876 µM)

**Q.** What about the MIC [2, 4] of the same compound?
**A.** 1 µg/mL (≈ 1.12 µM)

**Q.** What about the MIC [3, 5] of the same compound?
**A.** 0.063 µg/mL (≈ 0.0707 µM)

**Q.** For `CCCCCCCn1cc(C(=O)N[C@@H](CCN)C(=O)N(C)[C@@H]2C(=O)N[C@@H](C)C(=O)N[C@H](C(=O)NCC#N)Cc3ccc(OCCN)c(c3)-c3cc2ccc3OCCN)c(C)nc1=O` [Compound 301], which MIC [1] is on record?
**A.** 4 µg/mL (≈ 4.59 µM)

**Q.** And the MIC [2, 4]?
**A.** > 64 µg/mL

**Q.** What about the MIC [3, 5] of the same compound?
**A.** 4 µg/mL (≈ 4.59 µM)

**Q.** `Cc1nc(C#CC2CCCCC2)ncc1C(=O)N[C@@H](CCN)C(=O)N(C)[C@@H]1C(=O)N[C@@H](C)C(=O)N[C@H](C(=O)NCC#N)Cc2ccc(OCCN)c(c2)-c2cc1ccc2OCCN` [Compound 312] was tested. Which MIC [1] did it give?
**A.** 0.023 µg/mL (≈ 0.0266 µM)

**Q.** What about the MIC [2, 4] of the same compound?
**A.** 0.5 µg/mL (≈ 0.579 µM)

**Q.** What about the MIC [3, 5] of the same compound?
**A.** 0.25 µg/mL (≈ 0.289 µM)

**Q.** Which MIC [1] does the source give for `CCCCCCCc1ccc(C(=O)N[C@@H](CCN)C(=O)N(C)[C@@H]2C(=O)N[C@@H](C)C(=O)N[C@H](C(=O)NCC#N)Cc3ccc(O)c(c3)-c3cc2ccc3OCCN)c(C)c1` [Compound 314] here?
**A.** 0.023 µg/mL (≈ 0.0284 µM)

**Q.** What about the MIC [2, 4] of the same compound?
**A.** 0.44 µg/mL (≈ 0.543 µM)

**Q.** What about the MIC [3, 5] of the same compound?
**A.** 0.078 µg/mL (≈ 0.0962 µM)

**Q.** For `CCCCCCCc1ccc(C(=O)N[C@@H](CCN)C(=O)N(C)[C@@H]2C(=O)N[C@@H](C)C(=O)N[C@H](C(=O)NCC#N)Cc3ccc(OCCN)c(c3)-c3cc2ccc3O)c(C)c1` [Compound 315], which MIC [1] is on record?
**A.** 0.014 µg/mL (≈ 0.0173 µM)

**Q.** What about the MIC [2, 4] of the same compound?
**A.** 0.38 µg/mL (≈ 0.469 µM)

**Q.** And the MIC [3, 5]?
**A.** 0.078 µg/mL (≈ 0.0962 µM)

**Q.** For `CCCCCCCCCCCCCC(=O)N[C@@H](CCN)C(=O)N(C)[C@@H]1C(=O)N[C@@H](C)C(=O)N[C@H](C(=O)NCC#N)Cc2ccc(OCC(=O)O)c(c2)-c2cc1ccc2OCCN` [Compound 327], which MIC [1] is on record?
**A.** 0.0078 µg/mL (≈ 0.00904 µM)

**Q.** And the MIC [2, 4]?
**A.** 2 µg/mL (≈ 2.32 µM)

**Q.** And the MIC [3, 5]?
**A.** 0.25 µg/mL (≈ 0.29 µM)

**Q.** With `CCCCCCCCCCCCCC(=O)N[C@@H](CCN)C(=O)N(C)[C@@H]1C(=O)N[C@@H](C)C(=O)N[C@H](C(=O)NCC#N)Cc2ccc(OCC(=O)OC(C)(C)C)c(c2)-c2cc1ccc2OCCN` [Compound 328] as the compound, how does the MIC [1] read?
**A.** 0.25 µg/mL (≈ 0.272 µM)

**Q.** What about the MIC [2, 4] of the same compound?
**A.** 4 µg/mL (≈ 4.35 µM)

**Q.** What about the MIC [3, 5] of the same compound?
**A.** 1 µg/mL (≈ 1.09 µM)

**Q.** How did the MIC [1] turn out when `CCCCCCc1ccc(S(=O)(=O)N[C@@H](CCN)C(=O)N(C)[C@@H]2C(=O)N[C@@H](C)C(=O)N[C@H](C(=O)NCC#N)Cc3ccc(OCCN)c(c3)-c3cc2ccc3OCCN)c(C)c1` [Compound 347] was run?
**A.** 0.063 µg/mL (≈ 0.0719 µM)

**Q.** And the MIC ([2]; read-out: MIC (μg/mL) E. coli, E. coli ATCC 25922)?
**A.** 8 µg/mL (≈ 9.13 µM)

**Q.** And the MIC ([3]; read-out: MIC (μg/mL) S. aureus, MRSA USA 300 NRS384)?
**A.** 0.063 µg/mL (≈ 0.0719 µM)

**Q.** Which results are given for `CCCCCCCCCCNCCS(=O)(=O)N[C@@H](CCCN)C(=O)N(C)[C@@H]1C(=O)N[C@@H](C)C(=O)N[C@H](C(=O)NCC#N)Cc2ccc(OCCN)c(c2)-c2cc1ccc2OCCN` [Compound 349]?
**A.** MIC [1]: 0.13 µg/mL (≈ 0.145 µM); MIC [2, 4]: 8 µg/mL (≈ 8.9 µM); MIC [3, 5]: 0.016 µg/mL (≈ 0.0178 µM)

**Q.** For `CCCCCCCCCCNCCS(=O)(=O)N(C)[C@@H]1C(=O)N[C@@H](C)C(=O)N[C@H](C(=O)NCC#N)Cc2ccc(OCCN)c(c2)-c2cc1ccc2OCCN` [Compound 351], which MIC [1] is on record?
**A.** > 4 µg/mL

**Q.** And the MIC [2, 4]?
**A.** > 64 µg/mL

**Q.** And the MIC [3, 5]?
**A.** 1 µg/mL (≈ 1.27 µM)
